The values that follow come from patent US20060029967A1, “Assay for nitrous oxide neurologic syndrome” (priority 2002, published 2006).

For data set [1], the target named is methionine synthase (Rattus norvegicus, UniProt Q9Z2Q4). The following applies: rats exposed to nitrous oxide; cited from earlier work.
Data set [2] has as its target T1, methionine synthase (Homo sapiens, UniProt Q99707). The following applies: cited from earlier work.
In data set [3] the test system is methionine synthase. The following applies: pigs exposed to nitrous oxide; cited from earlier work.
Data set [4] deals with methionine synthase (Mus musculus, UniProt A6H5Y3). The following applies: mice exposed to nitrous oxide; cited from earlier work.
Chain of methionine synthase (Mus musculus, UniProt A6H5Y3) (A6H5Y3 whole entry): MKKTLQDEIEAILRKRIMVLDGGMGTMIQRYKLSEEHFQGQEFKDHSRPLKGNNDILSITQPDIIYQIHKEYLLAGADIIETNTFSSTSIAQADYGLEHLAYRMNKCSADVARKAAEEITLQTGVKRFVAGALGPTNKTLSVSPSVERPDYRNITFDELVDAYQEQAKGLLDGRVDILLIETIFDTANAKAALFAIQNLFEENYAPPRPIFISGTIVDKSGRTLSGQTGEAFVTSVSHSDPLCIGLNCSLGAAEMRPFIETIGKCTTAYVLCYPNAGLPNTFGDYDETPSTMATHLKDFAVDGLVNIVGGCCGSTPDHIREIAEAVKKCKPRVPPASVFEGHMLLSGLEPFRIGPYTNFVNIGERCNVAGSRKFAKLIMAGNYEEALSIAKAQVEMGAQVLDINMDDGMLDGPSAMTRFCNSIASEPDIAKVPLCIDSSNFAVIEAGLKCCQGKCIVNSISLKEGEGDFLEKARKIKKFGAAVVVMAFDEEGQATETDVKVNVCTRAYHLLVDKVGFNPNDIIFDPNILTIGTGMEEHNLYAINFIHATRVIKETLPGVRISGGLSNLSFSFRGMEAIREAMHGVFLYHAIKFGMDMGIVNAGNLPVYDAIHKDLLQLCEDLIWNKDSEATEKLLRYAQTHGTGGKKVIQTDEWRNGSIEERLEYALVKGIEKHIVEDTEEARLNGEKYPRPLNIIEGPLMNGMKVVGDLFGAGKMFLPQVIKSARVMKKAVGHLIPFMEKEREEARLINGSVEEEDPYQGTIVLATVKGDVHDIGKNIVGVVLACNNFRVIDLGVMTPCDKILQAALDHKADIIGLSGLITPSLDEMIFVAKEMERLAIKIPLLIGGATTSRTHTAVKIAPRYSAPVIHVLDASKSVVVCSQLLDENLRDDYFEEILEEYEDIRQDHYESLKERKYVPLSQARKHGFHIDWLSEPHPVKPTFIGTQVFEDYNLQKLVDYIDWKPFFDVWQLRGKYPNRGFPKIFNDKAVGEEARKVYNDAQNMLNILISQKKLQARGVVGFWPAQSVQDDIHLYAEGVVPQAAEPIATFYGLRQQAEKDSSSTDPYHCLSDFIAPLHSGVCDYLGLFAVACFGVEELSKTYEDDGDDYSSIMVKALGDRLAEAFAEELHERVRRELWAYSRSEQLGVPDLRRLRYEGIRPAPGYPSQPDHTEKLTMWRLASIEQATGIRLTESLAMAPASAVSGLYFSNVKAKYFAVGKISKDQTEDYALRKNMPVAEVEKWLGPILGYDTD
For data set [5], the target named is T1, methionine synthase. The following applies: recovery in cultured cells; de novo synthesis of the enzyme required to restore activity; cited from earlier work.
The target in data set [6] is T1, methionine synthase. Put plainly: Case report: infant with MTHFR deficiency anesthetized with nitrous oxide. It counts as in vivo. The arrangement: from tissue; host or cells: patient in vivo; no tissue assayed for methionine synthase. The following applies: infant with inherited MTHFR deficiency; two anesthetics with 60% nitrous oxide and 0.75% halothane (45 and 270 minutes). The source says:
A child discovered to have 5,10-methylenetetrahydrofolate reductase (MTHFR, […]) deficiency (OMIM #236250) died after two anesthetics using nitrous oxide (Beckman, D. R., et al., Birth Defects Orig. Artic. Ser. 23:47-64, 1987). MTHFR catalyzes the synthesis of 5-methyltetrahydrofolate. Sequence analysis of RNA transcripts and genomic DNA from the patient and family members, together with direct assays of fibroblast MTHFR activity, reveal that the enzyme deficiency was caused by a novel MTHFR mutation (1755→A) which changes conserved methionine 581 to an isoleucine, co-inherited with two common MTHFR polymorphisms (677C→T, 1298A→C) each associated with depressed enzyme function. (Frosst, P., et al., Nat. Genet. 10:111-3, 1995; van der Put, N. M., et al., Am. J. Hum. Genet. 62:1044-51, 1998).
The patient was normal […] when a mass was noted on the left lower extremity. Although not recognized prior to the patient's surgery, both the parent and uncle have serum total homocysteine levels >30.0 μM (normal 5.4-13.9 μM). On life-long, high dose vitamin B supplements, the proband's sibling has a homocysteine level of 4.3 μM. Neither the […] nor the sibling has received nitrous oxide. […]

T1 sequence (Q99707 whole entry): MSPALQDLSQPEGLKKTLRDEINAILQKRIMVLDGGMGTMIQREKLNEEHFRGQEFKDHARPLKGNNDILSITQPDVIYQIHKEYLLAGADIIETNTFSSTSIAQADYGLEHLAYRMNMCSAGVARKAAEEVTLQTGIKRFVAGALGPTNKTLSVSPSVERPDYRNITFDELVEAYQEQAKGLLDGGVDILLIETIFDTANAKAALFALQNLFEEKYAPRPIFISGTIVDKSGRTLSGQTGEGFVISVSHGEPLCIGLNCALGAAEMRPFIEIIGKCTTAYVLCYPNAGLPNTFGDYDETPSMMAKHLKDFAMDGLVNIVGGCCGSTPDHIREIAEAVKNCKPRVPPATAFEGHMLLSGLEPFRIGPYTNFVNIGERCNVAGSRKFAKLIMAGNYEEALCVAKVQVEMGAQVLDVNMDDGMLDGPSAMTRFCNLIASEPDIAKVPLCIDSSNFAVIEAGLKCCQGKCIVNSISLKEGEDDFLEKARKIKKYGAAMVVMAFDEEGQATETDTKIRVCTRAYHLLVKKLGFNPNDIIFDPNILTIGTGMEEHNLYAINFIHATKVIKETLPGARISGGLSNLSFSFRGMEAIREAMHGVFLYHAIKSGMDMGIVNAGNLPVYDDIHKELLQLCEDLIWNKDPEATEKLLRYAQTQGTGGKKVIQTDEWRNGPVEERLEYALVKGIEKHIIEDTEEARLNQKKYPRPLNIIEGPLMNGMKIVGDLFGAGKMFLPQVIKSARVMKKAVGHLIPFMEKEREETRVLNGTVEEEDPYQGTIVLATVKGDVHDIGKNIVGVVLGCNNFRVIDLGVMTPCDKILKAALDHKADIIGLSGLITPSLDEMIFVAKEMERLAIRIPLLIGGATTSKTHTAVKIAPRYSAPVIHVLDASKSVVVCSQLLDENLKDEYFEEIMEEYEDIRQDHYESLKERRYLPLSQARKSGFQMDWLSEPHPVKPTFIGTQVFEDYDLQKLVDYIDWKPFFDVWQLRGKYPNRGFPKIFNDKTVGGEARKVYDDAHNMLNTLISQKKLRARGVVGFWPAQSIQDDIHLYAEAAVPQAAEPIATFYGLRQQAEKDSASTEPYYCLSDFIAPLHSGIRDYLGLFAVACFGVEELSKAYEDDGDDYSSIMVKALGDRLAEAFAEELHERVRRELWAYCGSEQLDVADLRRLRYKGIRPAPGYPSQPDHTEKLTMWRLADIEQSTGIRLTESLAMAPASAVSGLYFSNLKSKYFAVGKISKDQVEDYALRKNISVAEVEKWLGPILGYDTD
Chain of methionine synthase (Rattus norvegicus, UniProt Q9Z2Q4) (Q9Z2Q4 whole entry): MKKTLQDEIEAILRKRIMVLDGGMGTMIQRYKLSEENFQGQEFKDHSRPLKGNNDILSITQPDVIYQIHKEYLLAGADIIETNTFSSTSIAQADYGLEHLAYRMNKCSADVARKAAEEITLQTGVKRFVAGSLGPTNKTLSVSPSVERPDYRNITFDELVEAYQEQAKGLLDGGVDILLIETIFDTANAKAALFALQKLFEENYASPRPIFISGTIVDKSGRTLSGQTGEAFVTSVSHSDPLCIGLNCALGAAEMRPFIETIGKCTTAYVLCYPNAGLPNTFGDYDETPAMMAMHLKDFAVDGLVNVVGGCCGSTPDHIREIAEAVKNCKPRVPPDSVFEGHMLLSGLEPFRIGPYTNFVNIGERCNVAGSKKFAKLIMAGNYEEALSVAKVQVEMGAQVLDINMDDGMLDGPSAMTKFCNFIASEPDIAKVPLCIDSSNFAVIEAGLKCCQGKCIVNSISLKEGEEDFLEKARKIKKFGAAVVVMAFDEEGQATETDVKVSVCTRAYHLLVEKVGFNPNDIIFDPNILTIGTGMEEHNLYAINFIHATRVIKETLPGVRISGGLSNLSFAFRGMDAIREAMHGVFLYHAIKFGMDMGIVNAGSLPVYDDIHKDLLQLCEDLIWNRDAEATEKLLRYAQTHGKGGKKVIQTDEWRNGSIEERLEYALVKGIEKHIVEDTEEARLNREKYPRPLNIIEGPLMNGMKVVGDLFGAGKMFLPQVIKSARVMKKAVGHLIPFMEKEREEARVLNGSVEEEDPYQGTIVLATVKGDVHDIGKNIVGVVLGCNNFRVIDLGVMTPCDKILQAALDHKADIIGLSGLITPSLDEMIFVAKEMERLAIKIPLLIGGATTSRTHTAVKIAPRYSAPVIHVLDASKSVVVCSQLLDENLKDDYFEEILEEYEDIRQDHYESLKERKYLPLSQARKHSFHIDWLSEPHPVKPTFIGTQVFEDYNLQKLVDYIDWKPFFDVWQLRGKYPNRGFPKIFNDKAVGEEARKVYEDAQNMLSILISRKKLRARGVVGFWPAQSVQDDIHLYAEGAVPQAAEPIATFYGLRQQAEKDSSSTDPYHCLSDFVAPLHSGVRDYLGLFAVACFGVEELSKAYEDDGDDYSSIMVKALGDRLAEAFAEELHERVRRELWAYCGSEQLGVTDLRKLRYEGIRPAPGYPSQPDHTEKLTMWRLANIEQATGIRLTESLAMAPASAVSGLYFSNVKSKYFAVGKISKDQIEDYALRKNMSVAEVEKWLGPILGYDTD

In the case of `[N-]=[N+]=O` [nitrous oxide], the “delayed recovery of enzyme activity” value in data set [1], in data set [3] and in data set [4] was ≥ 4 days each time. Also, the “Residual methionine synthase activity” value in data set [2] (following greater than 200 minutes of nitrous oxide administration) is “approaches zero”. Besides, in data set [2] (nitrous oxide administration), the “mean half-time of inactivation of methionine synthase” value is 46 min. For the same compound, the “nature of nitrous oxide-mediated inhibition” value in data set [5] is “irreversible”. Besides, the “clinical outcome after nitrous oxide anesthesia” value in data set [6] is “caused the patient's death”.
